For 1 molecule, IC50 results are on record in ChEMBL document CHEMBL5729103, “Thienopyrazine carboxamides as ubiquitin-specific protease inhibitors” (2022).

This test concerns the target T1, Ubiquitin carboxyl-terminal hydrolase 28 (Homo sapiens, UniProt Q96RU2).
T1 sequence (Q96RU2 whole entry): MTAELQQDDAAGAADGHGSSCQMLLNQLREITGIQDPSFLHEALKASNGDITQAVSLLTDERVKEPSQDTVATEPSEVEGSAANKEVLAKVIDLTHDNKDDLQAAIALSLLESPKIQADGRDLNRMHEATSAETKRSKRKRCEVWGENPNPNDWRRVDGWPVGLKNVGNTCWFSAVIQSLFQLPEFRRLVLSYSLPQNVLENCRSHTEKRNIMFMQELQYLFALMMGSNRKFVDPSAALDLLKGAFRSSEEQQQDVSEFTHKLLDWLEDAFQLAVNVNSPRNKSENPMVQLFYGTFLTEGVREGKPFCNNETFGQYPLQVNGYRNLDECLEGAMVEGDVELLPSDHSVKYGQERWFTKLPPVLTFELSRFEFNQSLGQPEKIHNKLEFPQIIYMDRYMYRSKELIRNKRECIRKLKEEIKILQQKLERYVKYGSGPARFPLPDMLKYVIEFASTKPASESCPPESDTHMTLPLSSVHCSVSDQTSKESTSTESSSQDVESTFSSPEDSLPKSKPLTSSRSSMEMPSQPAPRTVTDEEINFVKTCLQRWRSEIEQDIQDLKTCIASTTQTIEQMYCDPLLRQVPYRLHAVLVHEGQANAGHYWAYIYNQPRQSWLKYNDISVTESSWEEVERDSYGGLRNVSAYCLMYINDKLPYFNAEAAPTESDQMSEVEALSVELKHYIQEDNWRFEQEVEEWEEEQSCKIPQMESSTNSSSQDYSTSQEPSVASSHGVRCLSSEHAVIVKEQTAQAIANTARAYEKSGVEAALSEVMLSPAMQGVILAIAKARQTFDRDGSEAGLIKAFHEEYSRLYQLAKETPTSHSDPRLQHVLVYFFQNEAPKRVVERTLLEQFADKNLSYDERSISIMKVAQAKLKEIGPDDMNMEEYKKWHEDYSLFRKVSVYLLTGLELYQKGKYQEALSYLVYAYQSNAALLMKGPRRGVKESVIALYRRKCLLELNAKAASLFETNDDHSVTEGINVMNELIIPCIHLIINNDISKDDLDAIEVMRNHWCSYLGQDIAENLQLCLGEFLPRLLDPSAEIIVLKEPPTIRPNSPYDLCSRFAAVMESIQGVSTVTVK
Put plainly: Biochemical Assay: Ubiquitin-Rhodamine 110 Assay for USP28 Activity: Each assay was performed in a final volume of 20 μL in assay buffer containing 20 mM Tris-HCl (pH 8.0, (1M Tris-HCl, pH 8.0 solution; Corning 46-031-CM)), 2 mM CaCl2 (1M Calcium Chloride solution; Sigma #21114) 2 mM BME (2-Mercaptoethanol; Sigma 63689-25ML-F), 0.01% Prionex (0.22 μM filtered, Sigma #G-0411), and 0.01% Triton X-100. Stock compound solutions were stored at −20° C. as 10 mM in DMSO. Up to 1 month prior to the assay, 2 mM test compounds were pre-dispensed into assay plates (Black, low volume; Corning #3820) and frozen at −20° C. Prestamped assay plates were allowed to come to room temperature on the day of the assay. For the screen, 100 nL of 2 mM was pre-dispensed for a final screening concentration of 10 μM (DMSO(fc)=0.5%). […].

A word on the IC50: it is the concentration needed to halve the response being measured.

As to `Cc1cnc2c(N)c(C(=O)NCCc3ccc(N4CC5CCC(C4)N5)cc3)sc2n1`, the concentration for half-maximal inhibition (IC50) is below 0.2 µM.
